In patent US12060349B2, “Glucosylceramide synthase inhibitors” (Genzyme Corporation, priority 2012, dated 2024) one finds IC50 data, which are given here for 16 compounds.

Where two headings read alike, the source gives them in different places.

The target of assay [1] is T1, glucosylceramide synthase (Homo sapiens, UniProt Q16739).
T1 construct: Microsomes were isolated from A375 human melanoma cells; endogenous in cells; host or cells: A375 human melanoma cells (microsomal fraction, 100,000 g pellet)
T1 sequence (Q16739 1-394): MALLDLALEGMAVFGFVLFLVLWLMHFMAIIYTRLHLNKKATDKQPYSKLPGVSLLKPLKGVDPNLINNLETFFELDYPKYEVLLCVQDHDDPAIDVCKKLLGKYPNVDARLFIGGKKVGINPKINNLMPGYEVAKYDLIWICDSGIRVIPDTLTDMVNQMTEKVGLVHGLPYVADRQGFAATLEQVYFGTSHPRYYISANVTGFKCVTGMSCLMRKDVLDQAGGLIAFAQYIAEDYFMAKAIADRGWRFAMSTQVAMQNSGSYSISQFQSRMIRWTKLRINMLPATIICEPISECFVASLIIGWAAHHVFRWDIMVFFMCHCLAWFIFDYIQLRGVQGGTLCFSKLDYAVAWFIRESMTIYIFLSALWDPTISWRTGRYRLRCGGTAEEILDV
The experiment in a line: microsomal assay measuring conversion of ceramide to glucosylceramide by HPLC (GCS IC50). In kind it is biochemical. Particulars: concentration causing 50% inhibition of glucosylceramide synthase activity. Here is the method: Inhibition of glucosylceramide synthase activity for certain compounds of the invention were measured with 1) a microsomal assay that directly measures the conversion of ceramide to glucosylceramide by HPLC and 2) second, cell based, phenotypic assay that monitors cell surface expression of the downstream lipid GM3 by antibody mediated immunofluorescence. The cell based assay was performed in two different cell types, B16 and C32. Cell viability was also assessed in the second, cell-based assay.
The “Compound Number” in the table corresponds to the compound disclosed in the Example of the same number. The results of the microsomal assay are expressed as “GCS IC50”, which represents the concentration of the compound causing 50% inhibition of glucosylceramide synthase activity. The results of the cell based assays (performed in two different cell systems, i.e. B16 mouse melanoma or C32 human melanoma cells) are expressed as “GM3 B16 IC50” or “GM3 C32 IC50” for the B16 assay and the C32 assay, respectively. These values represent the concentration of the compound causing 50% inhibition of GM3 expression on the cell surface. The results of the viability assays are expressed as “Viability, B16 IC50” or “Viability, C32 IC50”, respectively. These values represent the concentration of the compound causing 50% cell death. Values greater than 10 represent a lack of cell death.

Assay [2] relates to GM3 expression on the cell surface, B16 mouse melanoma cells. The assay can be described thus: cell based phenotypic assay, cell surface GM3 by antibody mediated immunofluorescence, B16 (GM3 B16 IC50). Particulars: 50% inhibition of GM3 expression on the cell surface. As to the method: (§1) The cell based assay was performed in two different cell types, B16 and C32. Cell viability was also assessed in the second, cell-based assay.
(§2) The “Compound Number” in the table corresponds to the compound disclosed in the Example of the same number. […] The results of the cell based assays (performed in two different cell systems, i.e. B16 mouse melanoma or C32 human melanoma cells) are expressed as “GM3 B16 IC50” or “GM3 C32 IC50” for the B16 assay and the C32 assay, respectively. […] The results of the viability assays are expressed as “Viability, B16 IC50” or “Viability, C32 IC50”, respectively. These values represent the concentration of the compound causing 50% cell death. Values greater than 10 represent a lack of cell death.

Assay [3] relates to GM3 expression on the cell surface, C32 human melanoma cells. The experiment in a line: cell based phenotypic assay, cell surface GM3 by antibody mediated immunofluorescence, C32 (GM3 C32 IC50). Particulars: 50% inhibition of GM3 expression on the cell surface. Here is the method: as §1, §2
In the next assay the test system is B16 mouse melanoma cells. The assay can be described thus: cell viability in the B16 cell-based assay (Viability, B16 IC50). As to the method:
as §1, §2

Another assay relates to C32 human melanoma cells. The assay can be described thus: cell viability in the C32 cell-based assay (Viability, C32 IC50). The conditions noted are these: concentration causing 50% cell death, values greater than 10 represent a lack of cell death. As to the method:
as §1, §2

The mark [4] stands for this setting: B16 mouse melanoma cells, read-out: GM3 B16 IC50.
Where [5] appears, read: C32 human melanoma cells, read-out: GM3 C32 IC50.
Setting [6] is: B16 cells, concentration causing 50% cell death, values greater than 10 represent a lack of cell death, read-out: Viability, B16 IC50.
Setting [7] is: C32 cells, read-out: Viability, C32 IC50.
Setting [8] is: Mus musculus, read-out: GM3 B16 IC50, B16 mouse melanoma cells.
Setting [9] is: Homo sapiens, read-out: GM3 C32 IC50, C32 human melanoma cells.
[10] abbreviates: read-out: Viability, C32 IC50, C32 cells.
[11] abbreviates: Mus musculus, B16 mouse melanoma cells, read-out: GM3 B16 IC50.
The mark [12] stands for this setting: Homo sapiens, C32 human melanoma cells, read-out: GM3 C32 IC50.
The mark [13] stands for this setting: Mus musculus, B16, B16 cells, concentration causing 50% cell death, values greater than 10 represent a lack of cell death, read-out: Viability, B16 IC50.
The mark [14] stands for this setting: Homo sapiens, C32, C32 cells, read-out: Viability, C32 IC50.
Where [15] appears, read: Mus musculus, B16, read-out: Viability, B16 IC50.
The mark [16] stands for this setting: Homo sapiens, C32, read-out: Viability, C32 IC50, C32 cells.

For “N-(4-Methyl-1-azabicyclo[3.2.2]nonan-4-yl)-4-(3-(pyrimidin-5-yl)phenyl)piperazine-1-carboxamide [Example 27]”, the IC50 (as a rule, the concentration that inhibits the measured activity by half) in assay [1] is 16500 nM; in assay [2] (setting [4]) it was more than 10000 nM; in assay [3] (setting [5]), 798 nM; with B16 mouse melanoma cells (setting [6]) it was not below 10000 nM; in the assay on C32 human melanoma cells (setting [7]), not below 10000 nM.

Consider `CC(C)(NC(=O)OC1CN2CCC1CC2)c1ccc(-c2ccc(CO)cc2)cc1` (stereo not shown) [Example 223, Quinuclidin-3-yl (2-(4′-(hydroxymethyl)-[1,1′-biphenyl]-4-yl)propan-2-yl)carbamate], for which the IC50 in assay [1] is 454 nM; in assay [2] (setting [8]) it was 881 nM; in assay [3] (setting [9]), 21.6 nM; in the assay on B16 mouse melanoma cells (read-out: Viability, B16 IC50, B16 cells, concentration causing 50% cell death, values greater than 10 represent a lack of cell death), not below 10000 nM; with C32 human melanoma cells (setting [10]), not below 10000 nM.

In the case of `O=C(N1CCN(c2ccccc2)CC1)N1CCN2CCC1CC2` [Example 11, 1,4-Diazabicyclo[3.2.2]nonan-4-yl(4-phenylpiperazin-1-yl)methanone], the IC50 is 20800 nM in assay [1]; more than 10000 nM in assay [2] (setting [11]); more than 10000 nM in assay [3] (setting [12]); not below 10000 nM in the assay on B16 mouse melanoma cells (setting [13]); not below 10000 nM in the assay with C32 human melanoma cells (setting [14]).

Regarding `COCCCOc1cnc(-c2cccc(C(C)(C)NC(=O)OC3CN4CCC3CC4)c2)nc1` (stereo not shown) [Example 323, Quinuclidin-3-yl (2-(3-(5-(3-methoxypropoxy)pyrimidin-2-yl)phenyl)propan-2-yl)carbamate], the half-maximal inhibitory concentration (IC50) in assay [1] was 1160 nM; in assay [2] (setting [8]), 508 nM; in assay [3] (setting [9]) it was 48.8 nM; in the assay on B16 mouse melanoma cells (setting [15]), not below 10000 nM; in the assay with C32 human melanoma cells (setting [16]), 1000 nM.

Take `COCCOc1ccc(-c2ccc(C(C)(C)NC(=O)N[C@]3(C)CN4CCC3CC4)cc2)cc1` [Example 158, (S)-1-(2-(4′-(2-Methoxyethoxy)-[1,1′-biphenyl]-4-yl)propan-2-yl)-3-(3-methylquinuclidin-3-yl)urea]: the IC50 in assay [1] amounted to 2.85 nM; in assay [2] (setting [11]) it was 7.62 nM; in assay [3] (setting [12]), 0.529 nM; with B16 mouse melanoma cells (setting [13]) it was 631 nM; in the assay with C32 human melanoma cells (setting [14]), 631 nM.

As for `CC1(NC(=O)C2(F)CCN(c3nccc(-c4ccc(F)cc4)n3)CC2)CN2CCC1CC2` (stereo not shown) [Example 95, 4-Fluoro-1-(4-(4-fluorophenyl)pyrimidin-2-yl)-N-(3-methylquinuclidin-3-yl)piperidine-4-carboxamide], the IC50 was 0.585 nM in assay [1]; 20 nM in assay [2] (setting [11]); 0.0836 nM in assay [3] (setting [12]); 4690 nM in the assay on B16 mouse melanoma cells (setting [13]); 31.6 nM in the assay with C32 human melanoma cells (setting [14]).

Consider `COCCOc1cccc(-c2ccc(C(C)(C)NC(=O)OC3CN4CCC3CC4)cc2)c1` (stereo not shown) [Example 167, Quinuclidin-3-yl (2-(3′-(2-methoxyethoxy)-[1,1′-biphenyl]-4-yl)propan-2-yl)carbamate], for which the IC50 in assay [1] is 10.4 nM; in assay [2] (setting [8]) it was 109 nM; in assay [3] (setting [9]) it was 5.31 nM; in the assay on B16 mouse melanoma cells (setting [15]) it was not below 10000 nM; with C32 human melanoma cells (setting [16]), 1000 nM.

As for `COCCCOc1ccc(-c2ccc(C(C)(C)NC(=O)NC3(C)CN4CCC3CC4)cc2)cc1` (stereo not shown) [Example 173, 1-(2-(4′-(3-Methoxypropoxy)-[1,1′-biphenyl]-4-yl)propan-2-yl)-3-(3-methylquinuclidin-3-yl)urea], the IC50 in assay [1] was 1.98 nM; in assay [2] (setting [11]), 20.3 nM; in assay [3] (setting [12]), 0.766 nM; in the assay with B16 mouse melanoma cells (setting [13]), not below 10000 nM; in the assay with C32 human melanoma cells (setting [14]) it was not below 10000 nM.

As for `CC1(NC(=O)C2(F)CCN(c3ncc(C#N)c(Oc4ccc(F)cc4)n3)CC2)CN2CCC1CC2` (stereo not shown) [Example 122, 1-(5-Cyano-4-(4-fluorophenoxy)pyrimidin-2-yl)-4-fluoro-N-(3-methylquinuclidin-3-yl)piperidine-4-carboxamide], the IC50 was 4.41 nM in assay [1]; 112 nM in assay [2] (setting [11]); 0.639 nM in assay [3] (setting [12]); not below 10000 nM in the assay with B16 mouse melanoma cells (setting [13]); 316 nM in the assay with C32 human melanoma cells (setting [14]).

Regarding `CC(C)(NC(=O)OC1CN2CCC1CC2)c1ccc(-c2ccc(C(=O)N3CCOCC3)cc2)cc1` (stereo not shown) [Example 265, Quinuclidin-3-yl 2-(4′-(morpholine-4-carbonyl)biphenyl-4-yl)propan-2-ylcarbamate], the IC50 is 480 nM in assay [1]; 454 nM in assay [2] (setting [8]); 39.9 nM in assay [3] (setting [9]); not below 10000 nM in the assay with B16 mouse melanoma cells (setting [15]); 2150 nM in the assay on C32 human melanoma cells (setting [16]).

Take `COCCOCc1ccc(-c2nc(N3CCC(C(=O)NC4(C)CN5CCC4CC5)CC3)ncc2F)cc1` (stereo not shown) [Example 59, 1-(5-Fluoro-4-(4-((2-methoxyethoxy)methyl)phenyl)pyrimidin-2-yl)-N-(3-methylquinuclidin-3-yl)piperidine-4-carboxamide]: the IC50 in assay [1] was 9.18 nM; in assay [2] (setting [11]), 152 nM; in assay [3] (setting [12]), 0.339 nM; in the assay with B16 mouse melanoma cells (setting [13]) it was not below 10000 nM; with C32 human melanoma cells (setting [14]) it was 464 nM.

In the case of `CC(C)(NC(=O)OC1CN2CCC1CC2)c1ccc(-c2ccc(OCC#N)cc2)cc1` (stereo not shown) [Example 190, Quinuclidin-3-yl (2-(4′-(cyanomethoxy)-[1,1′-biphenyl]-4-yl)propan-2-yl)carbamate], the half-maximal inhibitory concentration (IC50) in assay [1] is 2.59 nM; in assay [2] (setting [8]) it was 47.7 nM; in assay [3] (setting [9]), 0.775 nM; in the assay with B16 mouse melanoma cells (setting [15]) it was not below 10000 nM; in the assay on C32 human melanoma cells (setting [16]), 1000 nM.

For the compound `CC1(NC(=O)C2CCN(c3cccc(-c4ccc(F)cc4)c3)CC2)CN2CCC1CC2` (stereo not shown) [Example 33, 1-(4′-Fluoro-[1,1′-biphenyl]-3-yl)-N-(3-methylquinuclidin-3-yl)piperidine-4-carboxamide], the IC50 came out at 22.1 nM in assay [1]; 237 nM in assay [2] (setting [11]); 5.02 nM in assay [3] (setting [12]); 6910 nM with B16 mouse melanoma cells (setting [13]); 1000 nM in the assay with C32 human melanoma cells (setting [14]).

As for “1-(5-Fluoro-4-(4-(2-methoxyethoxy)phenyl)pyrimidin-2-yl)-N-(3-methylquinuclidin-3-yl)piperidine-4-carboxamide [Example 57]”, the IC50 in assay [1] was 2.41 nM; in assay [2] (setting [4]), 69.3 nM; in assay [3] (setting [5]), 0.169 nM; in the assay with B16 mouse melanoma cells (setting [6]) it was not below 10000 nM; with C32 human melanoma cells (setting [7]) it was 1000 nM.

Consider `CC(C)(NC(=O)OC1CN2CCC1CC2)c1ccc(C(=O)N2CCN(c3ccccc3)CC2)cc1` (stereo not shown) [Example 304, Quinuclidin-3-yl 2-(4-(4-phenylpiperazine-1-carbonyl)phenyl)propan-2-ylcarbamate], for which the IC50 in assay [1] was 1730 nM; in assay [2] (setting [8]), 355 nM; in assay [3] (setting [9]), 95.9 nM; with B16 mouse melanoma cells (setting [15]) it was not below 10000 nM; in the assay on C32 human melanoma cells (setting [16]), not below 10000 nM.

Take `CCOc1ccc(-c2cccc(C(C)(C)NC(=O)OC3CN4CCC3CC4)c2)nn1` (stereo not shown) [Example 318, Quinuclidin-3-yl (2-(3-(6-ethoxypyridazin-3-yl)phenyl)propan-2-yl)carbamate]: the IC50 in assay [1] amounted to 1460 nM; in assay [2] (setting [8]), 635 nM; in assay [3] (setting [9]), 69.9 nM; in the assay with C32 human melanoma cells (setting [10]), 1000 nM.
